Experiment [1] has as its target T1, Tyrosine-protein kinase JAK3 (Homo sapiens) (UniProt P52333).
T1 sequence (whole entry): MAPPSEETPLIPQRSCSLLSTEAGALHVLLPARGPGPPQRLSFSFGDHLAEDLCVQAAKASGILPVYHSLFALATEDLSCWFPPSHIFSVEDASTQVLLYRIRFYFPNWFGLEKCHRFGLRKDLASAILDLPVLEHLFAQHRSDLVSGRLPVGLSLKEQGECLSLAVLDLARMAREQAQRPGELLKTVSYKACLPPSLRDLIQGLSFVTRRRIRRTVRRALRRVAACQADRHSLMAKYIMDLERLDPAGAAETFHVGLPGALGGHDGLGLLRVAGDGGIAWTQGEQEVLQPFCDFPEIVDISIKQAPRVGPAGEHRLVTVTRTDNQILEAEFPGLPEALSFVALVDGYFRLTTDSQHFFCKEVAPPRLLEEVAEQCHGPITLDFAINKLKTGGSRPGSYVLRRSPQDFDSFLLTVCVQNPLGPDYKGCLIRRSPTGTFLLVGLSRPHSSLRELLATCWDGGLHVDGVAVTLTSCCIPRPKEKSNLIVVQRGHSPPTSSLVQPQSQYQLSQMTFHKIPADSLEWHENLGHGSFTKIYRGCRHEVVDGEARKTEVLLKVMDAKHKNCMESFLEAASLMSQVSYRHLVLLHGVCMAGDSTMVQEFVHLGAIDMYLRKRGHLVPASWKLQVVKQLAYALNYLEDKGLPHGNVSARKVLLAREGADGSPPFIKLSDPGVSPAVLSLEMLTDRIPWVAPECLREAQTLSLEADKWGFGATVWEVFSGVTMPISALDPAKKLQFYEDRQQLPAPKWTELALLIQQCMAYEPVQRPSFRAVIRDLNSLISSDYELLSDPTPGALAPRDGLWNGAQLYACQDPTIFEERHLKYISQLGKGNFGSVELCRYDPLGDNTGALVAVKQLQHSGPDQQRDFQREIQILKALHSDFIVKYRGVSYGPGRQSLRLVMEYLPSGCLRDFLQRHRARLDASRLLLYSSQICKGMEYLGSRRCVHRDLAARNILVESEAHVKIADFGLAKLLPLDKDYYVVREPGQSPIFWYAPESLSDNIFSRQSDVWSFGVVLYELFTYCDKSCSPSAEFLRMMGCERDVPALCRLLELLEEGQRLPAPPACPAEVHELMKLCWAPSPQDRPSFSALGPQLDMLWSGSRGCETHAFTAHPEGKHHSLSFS
The experiment is described as follows: Inhibition of JAK3 assessed as remaining activity at 0.1 uM by radiolabeled kinase assay relative to control.

Experiment [2] deals with T2, NEDD8-activating enzyme E1 catalytic subunit (Homo sapiens) (UniProt Q8TBC4).
T2 sequence (whole entry): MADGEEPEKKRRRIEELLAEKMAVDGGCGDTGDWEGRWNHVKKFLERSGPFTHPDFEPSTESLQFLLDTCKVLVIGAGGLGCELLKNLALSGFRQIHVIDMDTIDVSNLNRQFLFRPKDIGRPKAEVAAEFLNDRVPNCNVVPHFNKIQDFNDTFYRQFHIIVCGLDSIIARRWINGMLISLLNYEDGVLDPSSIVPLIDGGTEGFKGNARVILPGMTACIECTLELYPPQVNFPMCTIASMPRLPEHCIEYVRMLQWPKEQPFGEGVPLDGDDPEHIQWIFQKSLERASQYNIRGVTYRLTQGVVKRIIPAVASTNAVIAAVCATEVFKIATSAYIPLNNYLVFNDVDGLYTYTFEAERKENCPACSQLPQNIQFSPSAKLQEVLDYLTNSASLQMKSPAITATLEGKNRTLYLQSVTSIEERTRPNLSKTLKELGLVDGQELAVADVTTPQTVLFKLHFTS
The experiment is described as follows: Inhibition of UBA3-mediated NEDD8 activation at […] after 1.5 hrs by Western blot analysis.

Active and inactive are the calls of the source. No cut-off for these calls is given here.

In the case of `CCCCCCNc1ncnc2c1ncn2[C@@H]1O[C@H](COS(N)(=O)=O)[C@@H](O)[C@H]1O`, the Activity in experiment [1] came to 94%. For the same compound, in experiment [2], the inhibition result was “Active”.

The record behind these values is ChEMBL document CHEMBL2016531, “Identification of NAE Inhibitors Exhibiting Potent Activity in Leukemia Cells: Exploring the Structural Determinants of NAE Specificity” (ACS Med Chem Lett, 2011).
